Results from paper PMC7721686, “Isolation, Characterization and Structure Elucidation of a Novel Lantibiotic From Paenibacillus sp” (Frontiers in Microbiology, 2020).
In brackets after ≈: the same amount, converted by molar mass. Read-outs that look alike come from different tables or passages of the source. Positions of bridges follow the written chain, without caps; N, C: chain ends. Non-standard residues stand in square brackets, D forms with d. Residues, ends and D or L forms follow the SMILES beside them. *: point of attachment. X1 = CC[C@H](C)CCCCC(=O)*; Dab = NCC[C@H](N)C(=O)O

What was measured:
[1] = system: S. aureus ATCC 29213 (SA) biofilm; test: Anti-biofilm activity, pre-formed biofilm; format: cell-based, Staphylococcus aureus; details: only at the highest concentration 100 μg/mL, 4 h, PrestoBlue
S. aureus (ATCC 29213) = format: cell-based, Staphylococcus aureus; details: overnight 37°C
MDR S. aureus (CH-11) = format: cell-based, Staphylococcus aureus
[2] = system: Multi-drug resistant A. baumannii CH-46; test: microbe, parasite or virus in culture; details: Acinetobacter baumannii
[3] = system: Acinetobacter baumannii CH36; test: microbe, parasite or virus in culture
[4] = system: Acinetobacter calcoaceticus CH37; test: microbe, parasite or virus in culture
[5] = system: Acinetobacter baumannii CH38; test: microbe, parasite or virus in culture
[6] = system: Acinetobacter baumannii CH39; test: microbe, parasite or virus in culture
[7] = system: Acinetobacter baumannii CH40; test: microbe, parasite or virus in culture
[8] = system: Acinetobacter ursingii CH41; test: microbe, parasite or virus in culture
[9] = system: Acinetobacter guillouiae CH42; test: microbe, parasite or virus in culture
[10] = system: Acinetobacter modestus CH43; test: microbe, parasite or virus in culture
[11] = system: Acinetobacter septicus CH44; test: microbe, parasite or virus in culture
[12] = system: Acinetobacter baumannii CH45; test: microbe, parasite or virus in culture
[13] = system: Acinetobacter baumannii CH47; test: microbe, parasite or virus in culture
[14] = system: Acinetobacter baumannii CH48; test: microbe, parasite or virus in culture
[15] = system: Acinetobacter baumannii CH49; test: microbe, parasite or virus in culture
[16] = system: Acinetobacter baumannii CH50; test: microbe, parasite or virus in culture
[17] = system: Acinetobacter baumannii CH51; test: microbe, parasite or virus in culture
[18] = system: Acinetobacter baumannii CH52; test: microbe, parasite or virus in culture
[19] = system: Acinetobacter baumannii CH53; test: microbe, parasite or virus in culture
[20] = system: Acinetobacter baumannii CH54; test: microbe, parasite or virus in culture
[21] = system: Acinetobacter baumannii CH55; test: microbe, parasite or virus in culture
[22] = system: Multi-drug resistant A. baumannii CH-46; details: Multi-drug resistant A. baumannii CH-46 (CH46 in Table S1, drug resistance Y); broth microplate dilution
[23] = system: Acinetobacter baumannii CH36
[24] = system: Acinetobacter calcoaceticus CH37
[25] = system: Acinetobacter baumannii CH38
[26] = system: Acinetobacter baumannii CH39
[27] = system: Acinetobacter baumannii CH40
[28] = system: Acinetobacter ursingii CH41; details: CH41, A. ursingii, drug resistance N
[29] = system: Acinetobacter guillouiae CH42
[30] = system: Acinetobacter modestus CH43
[31] = system: Acinetobacter septicus CH44; details: CH44, A. septicus, drug resistance N
[32] = system: Acinetobacter baumannii CH45
[33] = system: Acinetobacter baumannii CH47
[34] = system: Acinetobacter baumannii CH48
[35] = system: Acinetobacter baumannii CH49
[36] = system: Acinetobacter baumannii CH50
[37] = system: Acinetobacter baumannii CH51
[38] = system: Acinetobacter baumannii CH52
[39] = system: Acinetobacter baumannii CH53
[40] = system: Acinetobacter baumannii CH54
[41] = system: Acinetobacter baumannii CH55
S. aureus ATCC 29213 = test: Inhibition of bacterial adhesion, pre-coated polystyrene plates; format: cell-based, Staphylococcus aureus; details: wells pre-treated at 10 μg/mL, washed; bacteria incubated 1 to 24 h at 37°C, PrestoBlue

Molecule: CN[C@H](CC(C)C)C(=O)N[C@H]1C(=O)N[C@@H](CC(N)=O)C(=O)N[C@H]2C(=O)N[C@H]3C(=O)N[C@H](C(=O)N[C@H](C(=O)O)c4cc(O)cc(O)c4-c4cc3ccc4O)[C@H](O)c3ccc(c(Cl)c3)Oc3cc2cc(c3O[C@@H]2O[C@H](CO)[C@@H](O)[C@H](O)[C@H]2O[C@H]2C[C@](C)(N)[C@H](O)[C@H](C)O2)Oc2ccc(cc2Cl)[C@H]1O [vancomycin]
- Effect on viability of pre-formed biofilm [1]: partially effective

Molecule: COc1cccc(OC)c1C(=O)N[C@@H]1C(=O)N2[C@@H]1SC(C)(C)[C@@H]2C(=O)O [Methicillin]
- Frequency of Resistance to antibiotics (S. aureus (ATCC 29213); 2X MIC in Mueller-Hinton agar, resistant colonies / CFU of inoculum): < 3.72 × 10^–10
- Frequency of Resistance to antibiotics (S. aureus (ATCC 29213); 3X MIC in Mueller-Hinton agar): < 3.72 × 10^–10
- Frequency of Resistance to antibiotics (S. aureus (ATCC 29213); 4X MIC in Mueller-Hinton agar): < 3.72 × 10^–10
- Frequency of Resistance to antibiotics (S. aureus (ATCC 29213); 5X MIC in Mueller-Hinton agar): < 3.72 × 10^–10
- Frequency of Resistance to antibiotics (S. aureus (ATCC 29213); 10X MIC in Mueller-Hinton agar): < 3.72 × 10^–10
- Frequency of Resistance to antibiotics (MDR S. aureus (CH-11)): resistant

Molecule: C[C@@H](O)[C@H]1C(=O)N2C(C(=O)O)=C(SCCN=CN)C[C@H]12 [Imipenem]
- MIC [2]: 250 µg/mL (≈ 835 µM)
- MIC [3]: 250 µg/mL (≈ 835 µM)
- MIC [4]: 0.5 µg/mL (≈ 1.67 µM)
- MIC [5]: 125 µg/mL (≈ 418 µM)
- MIC [6]: 15.6 µg/mL (≈ 52.2 µM)
- MIC [7]: 31.2 µg/mL (≈ 104 µM)
- MIC [8]: 1 µg/mL (≈ 3.34 µM)
- MIC [9]: 7.81 µg/mL (≈ 26.1 µM)
- MIC [10]: 0.5 µg/mL (≈ 1.67 µM)
- MIC [11]: 1.46 µg/mL (≈ 4.88 µM)
- MIC [12]: 125 µg/mL (≈ 418 µM)
- MIC [13]: 3.91 µg/mL (≈ 13.1 µM)
- MIC [14]: 7.81 µg/mL (≈ 26.1 µM)
- MIC [15]: 62.5 µg/mL (≈ 209 µM)
- MIC [16]: 62.5 µg/mL (≈ 209 µM)
- MIC [17]: 31.2 µg/mL (≈ 104 µM)
- MIC [18]: 31.2 µg/mL (≈ 104 µM)
- MIC [19]: 31.2 µg/mL (≈ 104 µM)
- MIC [20]: 7.81 µg/mL (≈ 26.1 µM)
- MIC [21]: 46.9 µg/mL (≈ 157 µM)

Molecule: CC[C@H](C)CCCCC(=O)N[C@@H](CCN)C(=O)N[C@H](C(=O)N[C@@H](CCN)C(=O)N[C@H]1CCNC(=O)[C@H]([C@@H](C)O)NC(=O)[C@H](CCN)NC(=O)[C@H](CCN)NC(=O)[C@H](CC(C)C)NC(=O)[C@@H](CC(C)C)NC(=O)[C@H](CCN)NC1=O)[C@@H](C)O [Colistin] (X1-[Dab]T[Dab][Dab][Dab][dL]L[Dab][Dab]T; lactam 4-C (inferred); N-terminus assumed)
- MIC [22]: 3.91 µg/mL (≈ 3.34 µM)
- MIC [23]: 3.91 µg/mL (≈ 3.34 µM)
- MIC [24]: 3.91 µg/mL (≈ 3.34 µM)
- MIC [25]: 3.91 µg/mL (≈ 3.34 µM)
- MIC [26]: 3.91 µg/mL (≈ 3.34 µM)
- MIC [27]: 5.86 µg/mL (≈ 5.01 µM)
- MIC [28]: 1.95 µg/mL (≈ 1.67 µM)
- MIC [29]: 3.91 µg/mL (≈ 3.34 µM)
- MIC [30]: 7.81 µg/mL (≈ 6.68 µM)
- MIC [31]: 1.95 µg/mL (≈ 1.67 µM)
- MIC [32]: 3.91 µg/mL (≈ 3.34 µM)
- MIC [33]: 3.91 µg/mL (≈ 3.34 µM)
- MIC [34]: 3.91 µg/mL (≈ 3.34 µM)
- MIC [35]: 3.91 µg/mL (≈ 3.34 µM)
- MIC [36]: 5.86 µg/mL (≈ 5.01 µM)
- MIC [37]: 3.91 µg/mL (≈ 3.34 µM)
- MIC [38]: 3.91 µg/mL (≈ 3.34 µM)
- MIC [39]: 3.91 µg/mL (≈ 3.34 µM)
- MIC [40]: 5.86 µg/mL (≈ 5.01 µM)
- MIC [41]: 7.81 µg/mL (≈ 6.68 µM)

B1: platelet factor 4: control cationic peptide (protein, UniProt P02776 32-101, looked up)
Platelet factor 4: EAEEDGDLQCLCVKTTSQVRPRHITSLEVIKAGPHCPTAQLIATLKNGRKICLDLQAPLYKKIIKKLLES
- Inhibition of cell adhesion / biofilm formation on pre-treated polystyrene wells (S. aureus ATCC 29213): no effect on biofilm formation
